In brackets after ≈: the same amount, converted by molar mass.
Columns and labels:
[1] = system: Hep-2 (human hepatocellular carcinoma); experiment: MTT solid tumor cell growth inhibition, 72 h; type: cell-based; settings: Homo sapiens, HEp-2, Hep2, 72 h; for IC50: read-out: IC50; for IC90: read-out: IC90
Method in brief: (§1)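 4000 cells/well, DMEM HG/10% FBS, 37° C, 5% CO2; 24 h attach, then compound dilutions 72 h. MTT; % viability, untreated control = 100%.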

[2] = system: MGC 803 (human gastric cancer cell); experiment: MTT solid tumor cell growth inhibition, 72 h; type: cell-based; settings: Homo sapiens, MGC 803, 72 h; for IC50: read-out: IC50; for IC90: read-out: IC90
Method in brief: as §1

[3] = system: Becap37 (human breast cancer cell); experiment: MTT solid tumor cell growth inhibition, 72 h; type: cell-based; settings: Homo sapiens, Becap37, 72 h; for IC50: read-out: IC50; for IC90: read-out: IC90
Method in brief: as §1

A549 (human lung cancer) = experiment: MTT solid tumor cell growth inhibition, 72 h; type: cell-based; settings: Homo sapiens, A549, 72 h; for IC50: read-out: IC50; for IC90: read-out: IC90
Method in brief: as §1

[4] = system: Huh7 (human liver cancer cell); experiment: MTT solid tumor cell growth inhibition, 72 h; type: cell-based; settings: Homo sapiens, Huh-7, Huh7, 72 h; for IC50: read-out: IC50; for IC90: read-out: IC90
Method in brief: as §1

[5] = system: Hela (human cervical cancer cell); experiment: MTT solid tumor cell growth inhibition, 72 h; type: cell-based; settings: Homo sapiens, HeLa; for IC50: read-out: IC50; for IC90: read-out: IC90
Method in brief: as §1

[6] = system: RKO (human colon adenocarcinoma cell); experiment: MTT solid tumor cell growth inhibition, 72 h; type: cell-based; settings: Homo sapiens; for IC50: read-out: IC50; for IC90: read-out: IC90
Method in brief: as §1

MG63 (osteosarcoma) = experiment: MTT solid tumor cell growth inhibition, 72 h; type: cell-based, human; settings: Homo sapiens, MG 63, 72 h; for IC50: read-out: IC50; for IC90: read-out: IC90
Method in brief: as §1

[7] = system: SK-OV-3 (ovarian cancer cell); experiment: MTT solid tumor cell growth inhibition, 72 h; type: cell-based, human; settings: Homo sapiens, SK-OV-3, 72 h; for IC50: read-out: IC50; for IC90: read-out: IC90
Method in brief: as §1

[8] = system: U87 MG (malignant glioma cell); experiment: MTT solid tumor cell growth inhibition, 72 h; type: cell-based, human; settings: Homo sapiens, U-87 MG; for IC50: read-out: IC50; for IC90: read-out: IC90
Method in brief: as §1

[9] = system: CaES-17 (esophageal cancer cell); experiment: MTT solid tumor cell growth inhibition, 72 h; type: cell-based, human; settings: Homo sapiens, CaEs17, CaES-17, 72 h; for IC50: read-out: IC50; for IC90: read-out: IC90
Method in brief: as §1

[10] = system: PANC-1 (pancreatic cancer); experiment: MTT solid tumor cell growth inhibition, 72 h; type: cell-based, human; settings: Homo sapiens, PANC-1, 72 h; for IC50: read-out: IC50; for IC90: read-out: IC90
Method in brief: as §1

PC-3 (prostate cancer) = experiment: MTT solid tumor cell growth inhibition, 72 h; type: cell-based, human; settings: Homo sapiens, PC-3, 72 h; for IC50: read-out: IC50; for IC90: read-out: IC90
Method in brief: as §1

[11] = system: CNE (nasopharyngeal carcinoma cell); experiment: MTT solid tumor cell growth inhibition, 72 h; type: cell-based, human; settings: Homo sapiens; for IC50: read-out: IC50; for IC90: read-out: IC90
Method in brief: as §1

[12] = system: Kasumi-1 (acute myeloid leukemia M2 type, AML-M2); experiment: MTT leukemia cell growth inhibition, 72 h; type: cell-based, human; settings: Homo sapiens, Kasumi-1, 72 h; for IC50: read-out: IC50; for IC90: read-out: IC90
Method in brief: (§2)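 Growth inhibition is derived from MTT-measured viable cells relative to compound-free controls taken as 100%. Treatment with serially varied derivative concentrations lasted 72 hours in 37 °C, 5% CO2 culture.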

[13] = system: Jurkat (acute lymphoblastic leukemia, ALL); experiment: MTT leukemia cell growth inhibition, 72 h; type: cell-based, human; settings: Homo sapiens; for IC50: read-out: IC50; for IC90: read-out: IC90
Method in brief: as §2

[14] = system: NB4 (acute promyelocytic leukemia, AML); experiment: MTT leukemia cell growth inhibition, 72 h; type: cell-based, human; settings: Homo sapiens, NB4, 72 h; for IC50: read-out: IC50; for IC90: read-out: IC90
Method in brief: as §2

[15] = system: H9 (acute lymphoblastic leukemia, ALL); experiment: MTT leukemia cell growth inhibition, 72 h; type: cell-based, human; settings: Homo sapiens, H9, 72 h; for IC50: read-out: IC50; for IC90: read-out: IC90
Method in brief: as §2

[16] = system: K562/adr (drug-resistant, chronic myeloid leukemia, CML); experiment: MTT leukemia cell growth inhibition, 72 h; type: cell-based, human; settings: Homo sapiens, K562/Adr; for IC50: read-out: IC50; for IC90: read-out: IC90
Method in brief: as §2

[17] = system: RPMI8226 (multiple myeloma); experiment: MTT multiple myeloma cell growth inhibition, 72 h; type: cell-based, human; settings: Homo sapiens, RPMI-8226, RPMI8226, 72 h; for IC50: read-out: IC50; for IC90: read-out: IC90
Method in brief: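 RPMI8226 cells at 6000 per well in 1640 medium with 10% fetal bovine serum, exposed to homoharringtonine derivatives at various concentrations. Incubation 72 h at 37° C, 5% CO2; viable cells read by MTT.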

Structure (SMILES)	IC50 [1]	IC90 [1]	IC50 [2]	IC90 [2]	IC50 [3]	IC90 [3]	IC50 (A549 (human lung cancer))	IC90 (A549 (human lung cancer))	IC50 [4]	IC90 [4]	IC50 [5]	IC90 [5]	IC50 [6]	IC90 [6]	IC50 (MG63 (osteosarcoma))	IC90 (MG63 (osteosarcoma))	IC50 [7]	IC90 [7]	IC50 [8]	IC90 [8]	also measured
COC1=C[C@]23CCCN2CCc2cc4c(cc2[C@@H]3[C@@H]1OC(=O)[C@@](O)(CCCC(C)(C)O)CC(=O)N1CCN(C(C)C)CC1)OCO4 [BS-HH-034]	1.29 µg/mL (≈ 2.01 µM)	> 16 µg/mL	0.81 µg/mL (≈ 1.26 µM)	11.8 µg/mL (≈ 18.4 µM)	0.81 µg/mL (≈ 1.26 µM)	> 16 µg/mL	1.74 µg/mL (≈ 2.71 µM)	> 16 µg/mL	1.05 µg/mL (≈ 1.64 µM)	> 16 µg/mL	1.97 µg/mL (≈ 3.07 µM)	> 16 µg/mL	0.18 µg/mL (≈ 0.28 µM)	1.25 µg/mL (≈ 1.95 µM)	0.32 µg/mL (≈ 0.499 µM)	16 µg/mL (≈ 24.9 µM)	2.81 µg/mL (≈ 4.38 µM)	> 16 µg/mL	0.89 µg/mL (≈ 1.39 µM)	5.74 µg/mL (≈ 8.94 µM)	IC50 [9]: 1.91 µg/mL (≈ 2.98 µM); IC90 [9]: 16 µg/mL (≈ 24.9 µM); IC50 [10]: 1.94 µg/mL (≈ 3.02 µM); IC90 [10]: > 16 µg/mL; IC50 (PC-3 (prostate cancer)): 0.91 µg/mL (≈ 1.42 µM); IC90 (PC-3 (prostate cancer)): > 16 µg/mL; IC50 [11]: 0.49 µg/mL (≈ 0.763 µM); IC90 [11]: 16 µg/mL (≈ 24.9 µM); IC50 [12]: 0.31 µg/mL (≈ 0.483 µM); IC90 [12]: 1.77 µg/mL (≈ 2.76 µM); IC50 [13]: 0.46 µg/mL (≈ 0.717 µM); IC90 [13]: 16 µg/mL (≈ 24.9 µM); IC50 [14]: 0.48 µg/mL (≈ 0.748 µM); IC90 [14]: 2.3 µg/mL (≈ 3.58 µM); IC50 [15]: 0.6 µg/mL (≈ 0.935 µM); IC90 [15]: 2.7 µg/mL (≈ 4.21 µM); IC50 [16]: 4.53 µg/mL (≈ 7.06 µM); IC90 [16]: 16 µg/mL (≈ 24.9 µM); IC50 [17]: 0.47 µg/mL (≈ 0.732 µM); IC90 [17]: 3.72 µg/mL (≈ 5.8 µM)
COC1=C[C@]23CCCN2CCc2cc4c(cc2[C@@H]3[C@@H]1OC(=O)[C@@](O)(CCCC(C)(C)O)CC(=O)N1CCN(c2ccccn2)CC1)OCO4 [BS-HH-044]	1.23 µg/mL (≈ 1.82 µM)	> 16 µg/mL	0.74 µg/mL (≈ 1.09 µM)	> 16 µg/mL	0.71 µg/mL (≈ 1.05 µM)	> 16 µg/mL	1.76 µg/mL (≈ 2.6 µM)	> 16 µg/mL	0.94 µg/mL (≈ 1.39 µM)	> 16 µg/mL	1.91 µg/mL (≈ 2.82 µM)	> 16 µg/mL	0.16 µg/mL (≈ 0.236 µM)	2.37 µg/mL (≈ 3.5 µM)	0.8 µg/mL (≈ 1.18 µM)	> 16 µg/mL	3.97 µg/mL (≈ 5.87 µM)	> 16 µg/mL	0.64 µg/mL (≈ 0.946 µM)	16 µg/mL (≈ 23.6 µM)	IC50 [9]: 1.63 µg/mL (≈ 2.41 µM); IC90 [9]: 16 µg/mL (≈ 23.6 µM); IC50 [10]: 1.91 µg/mL (≈ 2.82 µM); IC90 [10]: > 16 µg/mL; IC50 (PC-3 (prostate cancer)): 0.78 µg/mL (≈ 1.15 µM); IC90 (PC-3 (prostate cancer)): > 16 µg/mL; IC50 [11]: 0.76 µg/mL (≈ 1.12 µM); IC90 [11]: > 16 µg/mL; IC50 [12]: 0.38 µg/mL (≈ 0.561 µM); IC90 [12]: 2.25 µg/mL (≈ 3.32 µM); IC50 [13]: 0.48 µg/mL (≈ 0.709 µM); IC90 [13]: 16 µg/mL (≈ 23.6 µM); IC50 [14]: 0.25 µg/mL (≈ 0.369 µM); IC90 [14]: 0.64 µg/mL (≈ 0.946 µM); IC50 [15]: 1.41 µg/mL (≈ 2.08 µM); IC90 [15]: 16 µg/mL (≈ 23.6 µM); IC50 [16]: 5.18 µg/mL (≈ 7.65 µM); IC90 [16]: 16 µg/mL (≈ 23.6 µM); IC50 [17]: 0.48 µg/mL (≈ 0.709 µM); IC90 [17]: 3.36 µg/mL (≈ 4.96 µM)
COC(=O)C[C@](O)(CCCC(C)(C)O)C(=O)O[C@@H]1C(OC)=C[C@]23CCCN2CCc2cc4c(cc2[C@H]13)OCO4 [HHT, O-3-[(2R)-2,6-dihydroxy-2-(2′-methoxy-2′-oxoethyl)-6-methylheptanoyl]cephalotaxine, reference compound]	0.014 µg/mL (≈ 0.0257 µM)	> 16 µg/mL	0.016 µg/mL (≈ 0.0293 µM)	0.2 µg/mL (≈ 0.367 µM)	0.01 µg/mL (≈ 0.0183 µM)	11.6 µg/mL (≈ 21.2 µM)	0.03 µg/mL (≈ 0.055 µM)	> 16 µg/mL	0.004 µg/mL (≈ 0.00733 µM)	0.049 µg/mL (≈ 0.0898 µM)	0.019 µg/mL (≈ 0.0348 µM)	16 µg/mL (≈ 29.3 µM)	0.003 µg/mL (≈ 0.0055 µM)	0.009 µg/mL (≈ 0.0165 µM)	0.01 µg/mL (≈ 0.0183 µM)	1.2 µg/mL (≈ 2.2 µM)	0.003 µg/mL (≈ 0.0055 µM)	0.009 µg/mL (≈ 0.0165 µM)	0.004 µg/mL (≈ 0.00733 µM)	0.018 µg/mL (≈ 0.033 µM)	IC50 [9]: 0.037 µg/mL (≈ 0.0678 µM); IC90 [9]: > 16 µg/mL; IC50 [10]: 0.035 µg/mL (≈ 0.0641 µM); IC90 [10]: > 16 µg/mL; IC50 (PC-3 (prostate cancer)): 0.004 µg/mL (≈ 0.00733 µM); IC90 (PC-3 (prostate cancer)): 0.049 µg/mL (≈ 0.0898 µM); IC50 [11]: 0.038 µg/mL (≈ 0.0696 µM); IC90 [11]: > 16 µg/mL; IC50 [12]: 0.005 µg/mL (≈ 0.00916 µM); IC90 [12]: 0.024 µg/mL (≈ 0.044 µM); IC50 [13]: 0.007 µg/mL (≈ 0.0128 µM); IC90 [13]: 16 µg/mL (≈ 29.3 µM); IC50 [14]: 0.006 µg/mL (≈ 0.011 µM); IC90 [14]: 0.012 µg/mL (≈ 0.022 µM); IC50 [15]: 0.02 µg/mL (≈ 0.0367 µM); IC90 [15]: 0.046 µg/mL (≈ 0.0843 µM); IC50 [16]: 0.035 µg/mL (≈ 0.0641 µM); IC90 [16]: 0.98 µg/mL (≈ 1.8 µM); IC50 [17]: 0.006 µg/mL (≈ 0.011 µM); IC90 [17]: 0.027 µg/mL (≈ 0.0495 µM)

— patent US9676789B2, “Aminated derivative of homoharringtonine, preparation method therefor, and application thereof” (HANGZHOU BENSHENG PHARMACEUTICAL CO., LTD., priority 2011, dated 2017)
